Test results as given in US7615380B2, “Methods for modulating an immune response by modulating KRC activity” (President and Fellows of Harvard College, priority 2001, dated 2009).

Assays:
NIH 3T3 cells = assay: β-galactosidase cotransfection apoptosis assay in 3T3 cells; type: cell-based; details: TNFα 20 ng/ml
Protocol: 3T3 cells were cotransfected with CMV lacZ vector (300 ng per plate) and either empty expression vector or the expression vectors indicated (2 μg of each). Half of the transfected cultured cells were treated with TNFα (20 ng/ml) at 12 hours after the transfection and the other half left untreated. All the cells were fixed and stained at 36 hours after the transfection. The number of blue cells in each transfection was determined by counting six different fields. A representative experiment of three performed is presented.
β-galactosidase cotransfection assays for determination of cell death were performed as described (Hsu, et al.). Transfected NIH 3T3 cells were washed with PBS, fixed in PBS containing 3% paraformaldehyde for 10 min at 4° C., and washed with PBS. Fixed cells were stained overnight with XGal. The number of blue-stained cells was determined microscopically. The average number from one representative experiment of three is shown.

TNFα = assay: Northern blot of endogenous TNFα in stably transfected RAW macrophage clones; type: cell-based; details: stable RAW transfectants, baseline
Protocol: Northern blotting analysis was performed using total RNA made from RAW cell lines transfected with an empty vector as a control and from a panel of 9 independent RAW clones stably transfected with full-length KRC (upper) and 3 RAW clones stably transfected with dominant negative KRC (lower). The blot was probed with a TNFα cDNA and with HPRT as loading control.
HEK293 cells ([…] per well) were seeded in 6 well plates, and 12 h later cells were transfected with EFECTENE™ (Qiagen) with 25 ng of a 2XNFκB-luciferase (Luc) reporter gene plasmid and 0.5 μg of the indicated TRAF and KRC expression vectors. Total amounts of transfected DNA were kept constant by supplementing with control empty expression vector plasmids as needed. Cell extracts were prepared 24 h after transfection, and reporter gene activity was determined via the luciferase assay system (PROMEGA). PRSV-βGal vector (50 ng) was used to normalize for transfection efficiency by measuring β galactosidase activity using the Galacton-PLUS substrate system (TROPIX, Inc.). Whenever indicated, the cells were treated for 4 hours with TNFα or IL-1 (10 ng/ml). To generate stable transfectants, EFECTENE™ mediated transfection of the RAW cell line was performed and clones were selected and maintained in complete medium supplemented with G418 (2 mg/ml). […]

IL-2 = IL-2 ELISA in stably transfected Jurkat clones; type: cell-based, human; details: stable Jurkat clones, PMA and ionomycin
Protocol: In panel A Jurkat T cells were stably transfected with vector (pEF) or KRC expression plasmids. Stable clones were stimulated for 18 hours with PMA (50 ng/mL) plus ionomycin (2 μM) and IL-2 production was measured by ELISA. In panel B Primary CD4+ T cells were activated for 36 hours and subsequently transduced with control (RV), KRC, or KRC dominant negative (ZAS2) bicistronic GFP-expressing retroviruses. GFP-positive cells were sorted and stimulated for 24 hours with anti-CD3 or anti-CD3/anti-CD28 antibodies and IL-2 production was measured by ELISA. In panel C CD4 T cells from KRC +/+ or −/− mice were stimulated with anti-CD3 (1.0 μg/mL)/CD28 (0.5 μg/mL) antibodies for 24 hours and IL-2 production was measured by ELISA. In panel D CD4 T cells from KRC +/+ or −/− mice were stimulated with anti-CD3/CD28 antibodies for 72 hours in the presence of 200 U/mL human IL-2. IFNγ production was measured by ELISA.
In this example, increased IL-2 production in Jurkat T cells stably expressing KRC was measured by ELISA. IL-2 promoter activation requires antigen receptor engagement plus an accessory signal usually supplied by an antigen presenting cell (Jain, J., et al. (1995) Curr. Biol. 7:333-342). […] G418 drug-resistant Jurkat clones were expanded and analyzed for IL-2 secretion following activation.

F-actin = F-actin immunofluorescence in Jurkat T cells; type: cell-based, human
Protocol: Immunofluorescence of F-actin upon KRC overexpression in Jurkat T cells was performed.

Substance: KRC: full-length KRC zinc finger protein (SEQ ID NO:2) overexpressed from an expression vector
- TNFα-induced apoptosis (TNF mediated cytotoxicity) (NIH 3T3 cells): increase in TNF mediated cytotoxicity
- endogenous TNFα mRNA expression (TNFα): substantial decrease of baseline TNFα mRNA transcripts
- IL-2 production (IL-2): substantially greater amounts of IL-2
- actin polymerization (F-actin) (F-actin): reorganization of F-actin filaments
